Source: US6916818B2, “Azaindoles having serotonin receptor affinity” (NPS Allelix Corp., priority 1999, dated 2005)

Biological target: T1, human 5HT6 receptor (Homo sapiens, UniProt P50406)
T1 construct: expressed in transfected cells
Test: Functional assay: serotonin-stimulated adenyl cyclase (cAMP EIA) in HEK 293 cells expressing 5HT6
Type: cell-based
Settings: test compound 100 nM and 10 μM along with serotonin
Description: The 5HT6 receptor responds to serotonin and other agonists by increasing adenyl cyclase mediated production of cyclic AMP. Particular test compounds were assayed for their effect on adenyl cyclase activity using the procedure described below.
Compounds acting as antagonists at the 5HT6 receptor will antagonize the agonist effect of serotonin and thus, will block the serotonin-induced increase in adenyl cyclase activity.
HEK 293 cells stably expressing the human 5HT6 receptor were plated in 6 well plates in DMEM (Dulbecco's Modified Eagle Medium)/F12 (Nutrient Mixture F12—Ham) media with 10% FCS (fetal calf serum) and G418 (Geneticen Disulfate, 500 ug/ml), and incubated at 37° C. in a CO2 incubator. The cells were allowed to grow to about 70% confluence before use in the assay.
The culture medium of each well was removed, and the wells were washed once with serum free media. Then 2 ml of SFM+IBMX medium (SFM with 0.5 mM IBMX, 3-isobutyl-1-methylxanthine, 0.1% ascorbic acid and 10 mM pargyline) was added to each well and the wells were incubated at 37° C. for 10 min. Following incubation, the SFM+IBMX medium was removed from each well and fresh SFM+IBMX media was added to the wells separately with one of a) serotonin (1 μM final concentration); b) test compound (100 nM and 10 μM, to test for agonist activity); and c) test compound (100 nM and 10 μM) along with serotonin ([…], to test for antagonist activity). Basal adenyl cyclase activity was determined from wells with only SFM+IBMX media added.
The cells were then incubated at 37° C. for 30 minutes in a CO2 incubator. […] The pellets were discarded and the supernatants were stored at 4° C. until assayed for cAMP concentration. cAMP content for each extract was determined in duplicate by EIA (enzyme-immunoassay) using the Amersham Biotrak cAMP EIA kit (Amersham RPN 225). Final results were expressed as % basal response for agonists and % reversal of serotonin response for antagonists.
The total stimulation of adenyl cyclase by serotonin (So) was determined as the difference in concentration of cAMP in the serotonin-treated cells (Cd) and the basal-treated cells (Cf). […]
The net stimulation (S) of basal adenyl cyclase by an agonist test compound was determined as the difference in cAMP concentration in the drug-treated cell (C) and the basal-treated cells (Cf). […]
The net stimulation (Ss) of basal adenyl cyclase by serotonin in the presence of an antagonist test compound was determined as the difference in cAMP concentration in the serontonin-drug-treated cells (Cs) and the basal-treated cells (Cf). […]
The ability of the antagonist test compound to reverse the serotonin stimuation of adenyl cyclase activity (% reversal, % R) was determined by the formula: % R=(1−Ss/So)×100

T1 sequence (P50406 whole entry): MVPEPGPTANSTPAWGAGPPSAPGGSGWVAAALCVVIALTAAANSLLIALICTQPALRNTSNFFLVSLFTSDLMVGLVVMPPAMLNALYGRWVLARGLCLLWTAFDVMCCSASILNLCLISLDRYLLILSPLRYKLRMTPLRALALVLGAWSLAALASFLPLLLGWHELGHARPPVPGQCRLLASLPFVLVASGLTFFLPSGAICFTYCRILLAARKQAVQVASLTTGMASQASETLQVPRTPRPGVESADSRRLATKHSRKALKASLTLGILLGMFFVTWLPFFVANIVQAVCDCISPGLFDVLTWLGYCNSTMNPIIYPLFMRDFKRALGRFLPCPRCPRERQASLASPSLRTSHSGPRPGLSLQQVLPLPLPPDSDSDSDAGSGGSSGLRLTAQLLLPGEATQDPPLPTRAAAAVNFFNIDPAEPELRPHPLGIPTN

| SMILES | reversal of serotonin stimulation of adenyl cyclase (antagonist activity) |
| --- | --- |
| O=S(=O)(c1cccc2ccccc12)n1cc(C2=CCN3CCCC3C2)c2cnccc21 (stereo not shown) [3-(1,2,3,5,8,8a-Hexahydro-7-indolizinyl)-1-(1-naphthalenesulfonyl)-5-azaindole] | able to reverse the serotonin stimulation of adenyl cyclase |
| O=S(=O)(c1cccc2ccccc12)n1cc(C2=CCN3CCCC3C2)c2cccnc21 (stereo not shown) [3-(1,2,3,5,8,8a-Hexahydro-7-indolizinyl)-1-(1-naphthalenesulfonyl)-7-azaindole] | able to reverse the serotonin stimulation of adenyl cyclase |
| O=S(=O)(c1ccccc1)n1cc(C2=CCN3CCCC3C2)c2cnccc21 (stereo not shown) [3-(1,2,3,5,8,8a-Hexahydro-7-indolizinyl)-1-benzenesulfonyl-5-azaindole] | able to reverse the serotonin stimulation of adenyl cyclase |
| O=S(=O)(c1ccccc1)n1cc(C2=CCN3CCCC3C2)c2cccnc21 (stereo not shown) [3-(1,2,3,5,8,8a-Hexahydro-7-indolizinyl)-1-benzenesulfonyl-7-azaindole] | able to reverse the serotonin stimulation of adenyl cyclase |
